Results as given in patent US20100087385A1 (priority 2006, published 2010).

How the values were obtained:
[1] = test system: IBD mice (colon injury induced by acetic acid); test: Experiment I: acetic acid induced IBD in mice, glycyrrhizin and glycyrrhetinic acid; type: in vivo, KuMing mice; conditions: glycyrrhizin 105 mg/kg, glycyrrhetinic acid 72 mg/kg; for Inflammatory score / CMDI / GSH / MPO / MDA / SOD: once per day, 10 days; for Inflammatory score: normal 0, model 7.50 ± 0.7; for CMDI: normal 0.73 ± 0.03, model 1.75 ± 0.35; for GSH / MPO / MDA / SOD: colon homogenate; for GSH: normal 0.58 ± 0.12, model 0.16 ± 0.09; for MPO: normal 3.37 ± 0.31, model 1.33 ± 0.83; for MDA: normal 10.58 ± 2.74, model 26.2 ± 5.5; for SOD: normal 707 ± 105, model 309 ± 68; for CMDI of IBD mice decreased / MPO activity increased / inflammatory scores were lowered: once per day for ten days
Protocol: In Adis group, mice were provided Adis 600 mg/kg afer enema, once per day. Normal control and model groups were orally given with equal amount of normal saline daily. After seven days drug treatment, all mice except for normal control were stimulated with acetic acid to induce IBD. On day six, starvation was applied after drug treatment to all groups. On day seven, after drug treatment, mice were put to sleep with ether and the procedure of enema was performed before injecting 0.1 ml of 6% acitic acid using polyethylene tubings. Acitic acid was injected into mice through anus in depth about 1.5 cm to induce IBD. One minute after the actic acid injection, wash twice with normal saline and let the animals lay down and awake naturally. For normal control, mice were treated with equal amount of saline.
Drug treatment continued to day 10 to all groups. 24 hours after the last drug treatment, the mice were sacrificed. Take and weight the whole colon, score colon organ index, and evaluate CMDI. Colon tissues were homogenized in Tris buffer and adjusted to the concentration 5% for MPO, MDA, SOD, and GSH tests.
(§1) CMDI: Cut open the mouse along the mesentery and take the whole colon. Observe peritoneal adhesion, colon ulcer, and congestion. The standard of evaluation was listed on Table 1.
(§2) Myeloperoxidase (MPO): Carefully weight tissue samples, use Tris buffer (weight to volume ratio 1:19) to prepare 5% homogenization solution by high-speed homogenizer. Handle all steps on ice. Protein concentration was determined by method Lowry and use MPO test kit.
(§3) Lipid peroxidase (MDA): TBA was used to detect MDA in the homogenization solution
Superoxide dismutas (SOD): Method of pyrogallol was used to detect the activity of SOD in the homogenization solution
(§4) Glutathione (GSH): Follow the product insert coming with the test kit to detect GSH in the samples
The total score is combined with both parts of A with B.

[2] = test system: IBD mice (colon injury induced by acetic acid); test: Experiment II: acetic acid induced IBD in mice, ammonium glycyrrhizinate; type: in vivo, Kuming mice; conditions: for GSH / MPO / MDA / SOD: colon homogenate; for GSH / MPO / MDA / SOD / CMDI: once per day, 10 days; for GSH: normal 0.58 ± 0.12, model 0.16 ± 0.09; for MPO: normal 3.37 ± 0.31, model 1.33 ± 0.83; for MDA: normal 10.58 ± 2.74, model 26.2 ± 5.5; for SOD: normal 707 ± 105, model 309 ± 68; for CMDI: normal 0.73 ± 0.03, model 1.75 ± 0.35
Protocol: Kuming mice were randomly distributed into seven groups consisting of normal control, model group, Adis positive control, monoammonium glycyrrhizinate oral administration, diammonium glycyrrhizinate oral administration, triammonium glycyrrhizinate oral administration, diammonium glycyrrhizinate injection. In Adis group, mice were provided Adis 600 mg/kg after enema, once a day. In glycyrrhizinate oral administration groups, 14 mg/kg dose of individual glycyrrhizinate was applied once per day. Normal control and model group were orally given by equal amount of normal saline daily. After seven days drug treatment, all mice except for normal control were stimulated with acetic acid to induce IBD. On day six, starvation was applied after drug treatment to all groups. On day seven, after drug treatment, mice were put to sleep with ether and the procedure of enema was performed before injecting 0.1 ml of 6% acitic acid using polyethylene tubings. Acitic acid was injected into mice through anus in depth about 1.5 cm to induce IBD. One minute after the actic acid injection, wash twice with normal saline and let the animals lie down and awake naturally. For normal control, mice were treated with equal amount of saline. Drug treatment continued to day 10 to all groups. 24 hours after the last drug treatment, the mice were sacrificed. Take and weight the whole colon, score colon organ index, and evaluate CMDI. Colon tissues were homogenized in Tris buffer and adjusted to the concentration 5% for MPO, MDA, SOD, and GSH tests.
as §1, §2, §3
Superoxide dismutase (SOD): Method of pyrogallol was used to detect the activity of SOD in the homogenization solution
as §4
The total score is combined with both parts of A and B.

[3] = injection (IP.) 14 mg/kg, once per day for ten days
[4] = oral 14 mg/kg, once per day for ten days

Row | SMILES | CMDI ([1]; IP injection) | GSH ([1]; IP injection) | MPO ([1]; IP injection) | MDA ([1]; IP injection) | GSH ([1]; oral) | MPO ([1]; oral) | MDA ([1]; oral) | CMDI of IBD mice decreased ([1]; injection (IP)) [%] | MPO activity increased ([1]; injection (IP)) [×] | inflammatory scores were lowered ([1]; injection (IP)) [×] | CMDI of IBD mice decreased ([1]; oral) [%] | MPO activity increased ([1]; oral) [×] | GSH ([2]; oral 14 mg/kg) | MPO ([2]; oral 14 mg/kg) | MDA ([2]; oral 14 mg/kg) | SOD ([2]; oral 14 mg/kg) | CMDI of IBD mice decreased [2, 4] [%] | MPO activity increased [2, 4] [×] | inflammatory scores were lowered [2, 4] [×] | CMDI ([2]; oral 14 mg/kg) | other results
1 | CC1(C)[C@@H](O[C@H]2O[C@H](C(=O)O)[C@@H](O)[C@H](O)[C@H]2O[C@@H]2O[C@H](C(=O)O)[C@@H](O)[C@H](O)[C@H]2O)CC[C@]2(C)[C@H]3C(=O)C=C4[C@@H]5C[C@@](C)(C(=O)O)CC[C@]5(C)CC[C@@]4(C)[C@]3(C)CC[C@@H]12 [Glycyrrhizin, glycyrrhizic acid] | 0.88 ± 0.18^ΔΔ g/100 g | 0.36 ± 0.09^ΔΔ mg/mgpro. | 5.59 ± 0.94^ΔΔ U/mgpro. | 5.08 ± 1.91^ΔΔ nmol/mgpro. | 0.33 ± 0.22^ΔΔ mg/mgpro. | 5.09 ± 0.29^ΔΔ U/mgpro. | 6.04 ± 0.89^ΔΔ nmol/mgpro. | 98.86 | 3.20 | 4 | 82.3 | 2.83 |  |  |  |  |  |  |  |  | Inflammatory score ([1]; IP injection): 1.5 ± 0.41^ΔΔ; Inflammatory score ([1]; IP injection, listed as glycyrrhizin): 1.5; SOD ([1]; IP injection): 467 ± 49^ΔΔ U/mgpro.; SOD ([1]; oral): 425 ± 12^ΔΔ U/mgpro.; inflammatory scores were lowered ([1]; oral): 4 ×; Inflammatory score ([1]; oral): 1.5 ± 0.31^ΔΔ; Inflammatory score ([1]; oral, listed as glycyrrhizin): 1.5; CMDI ([1]; oral): 0.96 ± 0.03^ΔΔ g/100 g
2 | CC1(C)[C@@H](O[C@H]2O[C@H](C(=O)O)[C@@H](O)[C@H](O)[C@H]2O[C@@H]2O[C@H](C(=O)O)[C@@H](O)[C@H](O)[C@H]2O)CC[C@]2(C)[C@H]3C(=O)C=C4[C@@H]5C[C@@](C)(C(=O)O)CC[C@]5(C)CC[C@@]4(C)[C@]3(C)CC[C@@H]12.N.N [diammonium glycyrrhizinate] |  |  |  |  |  |  |  |  |  |  |  |  | 0.49 ± 0.14^ΔΔ mg/mgpro. | 2.93 ± 0.26^ΔΔ U/mgpro. | 8.32 ± 5.04^ΔΔ nmol/mgpro. | 505 ± 132^ΔΔ U/mgpro. | 39.4 | 1.20 | 1.73 | 1.06 ± 0.31^ΔΔ g/100 g | GSH ([2]; injection 14 mg/kg): 0.27 ± 0.13^ΔΔ mg/mgpro.; MPO ([2]; injection 14 mg/kg): 3.55 ± 0.45^ΔΔ U/mgpro.; MDA ([2]; injection 14 mg/kg): 7.85 ± 3.55^ΔΔ nmol/mgpro.; SOD ([2]; injection 14 mg/kg): 533 ± 101^ΔΔ U/mgpro.; CMDI ([2]; injection 14 mg/kg): 0.97 ± 0.18^ΔΔ g/100 g; CMDI of IBD mice decreased [2, 3]: 45.7%; MPO activity increased [2, 3]: 1.67 ×; inflammatory score was lowered [2, 3]: 2.75 ×
3 | CC1(C)C2CC[C@]3(C)C(C(=O)C=C4C5C[C@@](C)(C(=O)O)CC[C@]5(C)CCC43C)[C@@]2(C)CC[C@@H]1O (some centres unmarked) [glycyrrhetinic acid] | 1.07 ± 0.28^ΔΔ g/100 g | 0.31 ± 0.08^ΔΔ mg/mgpro. | 4.51 ± 0.35^ΔΔ U/mgpro. | 5.85 ± 1.33^ΔΔ nmol/mgpro. | 0.31 ± 0.08^ΔΔ mg/mgpro. | 3.48 ± 0.46^ΔΔ U/mgpro. | 4.56 ± 2.28^ΔΔ nmol/mgpro. | 63.55 | 2.39 | 2.75 | 57.65 | 1.62 |  |  |  |  |  |  |  |  | CMDI ([1]; oral): 1.11 ± 0.41^ΔΔ g/100 g
4 | CC1(C)[C@@H](O[C@H]2O[C@H](C(=O)O)[C@@H](O)[C@H](O)[C@H]2O[C@@H]2O[C@H](C(=O)O)[C@@H](O)[C@H](O)[C@H]2O)CC[C@]2(C)[C@H]3C(=O)C=C4[C@@H]5C[C@@](C)(C(=O)O)CC[C@]5(C)CC[C@@]4(C)[C@]3(C)CC[C@@H]12.N [monoammonium glycyrrhizinate] |  |  |  |  |  |  |  |  |  |  |  |  | 0.32 ± 0.12^ΔΔ mg/mgpro. | 2.99 ± 0.26^ΔΔ U/mgpro. | 16.14 ± 5.81^ΔΔ nmol/mgpro. | 412 ± 112^ΔΔ U/mgpro. | 14.3 | 1.25 | 1.5 | 1.50 ± 0.03^Δ g/100 g | 
5 | CC1(C)[C@@H](O[C@H]2O[C@H](C(=O)O)[C@@H](O)[C@H](O)[C@H]2O[C@@H]2O[C@H](C(=O)O)[C@@H](O)[C@H](O)[C@H]2O)CC[C@]2(C)[C@H]3C(=O)C=C4[C@@H]5C[C@@](C)(C(=O)O)CC[C@]5(C)CC[C@@]4(C)[C@]3(C)CC[C@@H]12 [triammonium glycyrrhizinate] |  |  |  |  |  |  |  |  |  |  |  |  | 0.26 ± 0.09^ΔΔ mg/mgpro. | 1.59 ± 0.94^ΔΔ U/mgpro. | 16.88 ± 5.97^ΔΔ nmol/mgpro. | 368 ± 79^ΔΔ U/mgpro. | 14.9 | 0.20 | 1.5 | 1.49 ± 0.08^ΔΔ g/100 g | 
